Legend:
Test in all cases: KINATIV assay of compounds I-3 and I-9, lysate directly labeled with ATP-biotin probe (no GF)
Type in all cases: cell-based
kinases in BCWM.1 cells [1] = target: kinases in BCWM.1 cells (Homo sapiens, UniProt P51955); conditions: NEK2; Lys2; 1 μM, 90 min; no GF
Protocol: (§1) The cells were harvested and lysed. […] Bound kinases were identified and quantitated by ACTIVX as described in Patricelli et al., Biochemistry, 2007, 46(2): 350-358. The compounds were tested in duplicates against duplicate or quadruplicate control samples.

kinases in BCWM.1 cells [2] = target: kinases in BCWM.1 cells (Homo sapiens, UniProt P15735); conditions: PHKg2; Lys1; 1 μM, 90 min; no GF
Protocol: as §1

kinases in BCWM.1 cells [3] = target: kinases in BCWM.1 cells (Homo sapiens, UniProt Q96S44); conditions: PRPK; ATP Loop; 1 μM, 90 min; no GF
Protocol: as §1

kinases in BCWM.1 cells [4] = target: kinases in BCWM.1 cells (Homo sapiens, UniProt Q9NYL2); conditions: ZAK; Lys1; 1 μM, 90 min; no GF
kinases in BCWM.1 cells (Homo sapiens, UniProt Q9NYL2), sequence (Q9NYL2 2-800 limits assumed): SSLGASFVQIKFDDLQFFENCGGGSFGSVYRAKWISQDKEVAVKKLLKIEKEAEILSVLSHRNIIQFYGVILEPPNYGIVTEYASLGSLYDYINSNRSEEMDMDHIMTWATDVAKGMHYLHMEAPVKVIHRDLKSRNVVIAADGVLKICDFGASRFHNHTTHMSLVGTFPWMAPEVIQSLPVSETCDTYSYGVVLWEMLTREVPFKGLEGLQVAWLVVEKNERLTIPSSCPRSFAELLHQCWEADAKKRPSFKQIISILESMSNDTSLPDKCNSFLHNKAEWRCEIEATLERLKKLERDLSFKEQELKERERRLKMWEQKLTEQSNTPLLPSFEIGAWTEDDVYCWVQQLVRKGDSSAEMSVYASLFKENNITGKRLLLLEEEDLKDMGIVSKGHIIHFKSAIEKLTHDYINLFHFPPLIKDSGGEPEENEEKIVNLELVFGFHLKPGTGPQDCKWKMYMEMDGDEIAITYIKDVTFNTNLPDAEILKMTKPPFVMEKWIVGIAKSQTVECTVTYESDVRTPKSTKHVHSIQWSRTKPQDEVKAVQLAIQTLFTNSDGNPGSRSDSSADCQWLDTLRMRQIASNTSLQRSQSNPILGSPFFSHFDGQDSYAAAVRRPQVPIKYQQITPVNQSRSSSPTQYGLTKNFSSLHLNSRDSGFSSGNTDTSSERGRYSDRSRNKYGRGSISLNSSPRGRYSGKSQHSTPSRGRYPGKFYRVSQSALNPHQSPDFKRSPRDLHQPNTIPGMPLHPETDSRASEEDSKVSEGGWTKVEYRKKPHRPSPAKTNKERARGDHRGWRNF
Protocol: as §1

kinases in BCWM.1 cells [5] = target: kinases in BCWM.1 cells (Homo sapiens, UniProt Q13523); conditions: PRP4; Lys2; 1 μM, 90 min; no GF
Protocol: as §1

kinases in BCWM.1 cells [6] = target: kinases in BCWM.1 cells (Homo sapiens, UniProt Q8TBX8); conditions: PIP4K2C; ATP; 1 μM, 90 min; no GF
kinases in BCWM.1 cells (Homo sapiens, UniProt Q8TBX8), sequence (Q8TBX8 2-421 limits assumed): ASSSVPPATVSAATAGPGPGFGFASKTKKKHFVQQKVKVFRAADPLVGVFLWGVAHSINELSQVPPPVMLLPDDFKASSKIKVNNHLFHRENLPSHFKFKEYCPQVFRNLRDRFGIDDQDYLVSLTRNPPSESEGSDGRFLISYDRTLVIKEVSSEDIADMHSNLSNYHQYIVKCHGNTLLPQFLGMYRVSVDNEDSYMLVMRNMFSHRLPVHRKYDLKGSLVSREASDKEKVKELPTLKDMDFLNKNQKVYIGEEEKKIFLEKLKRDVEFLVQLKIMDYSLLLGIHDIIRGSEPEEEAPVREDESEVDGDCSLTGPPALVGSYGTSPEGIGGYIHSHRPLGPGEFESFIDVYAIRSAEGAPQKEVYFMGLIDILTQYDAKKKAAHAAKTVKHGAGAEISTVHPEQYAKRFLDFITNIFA
Protocol: as §1

kinases in BCWM.1 cells [7] = target: kinases in BCWM.1 cells (Homo sapiens, UniProt Q15418); conditions: Lys2, 1 μM, 90 min, no GF
Protocol: as §1

kinases in BCWM.1 cells [8] = target: kinases in BCWM.1 cells (Homo sapiens, UniProt Q96BR1); conditions: SGK3; Lys1; 1 μM, 90 min; no GF
Protocol: as §1

kinases in BCWM.1 cells [9] = target: kinases in BCWM.1 cells (Homo sapiens, UniProt O15530); conditions: PDK1; Lys1; 1 μM, 90 min; no GF
Protocol: as §1

kinases in BCWM.1 cells [10] = target: kinases in BCWM.1 cells (Homo sapiens, UniProt Q6PHR2); conditions: ULK3; Lys2; 1 μM, 90 min; no GF
Protocol: as §1

kinases in BCWM.1 cells [11] = target: kinases in BCWM.1 cells (Homo sapiens, UniProt Q16512); conditions: PKN1; Lys1; 1 μM, 90 min; no GF
kinases in BCWM.1 cells (Homo sapiens, UniProt Q16512), sequence (Q16512 2-942 limits assumed): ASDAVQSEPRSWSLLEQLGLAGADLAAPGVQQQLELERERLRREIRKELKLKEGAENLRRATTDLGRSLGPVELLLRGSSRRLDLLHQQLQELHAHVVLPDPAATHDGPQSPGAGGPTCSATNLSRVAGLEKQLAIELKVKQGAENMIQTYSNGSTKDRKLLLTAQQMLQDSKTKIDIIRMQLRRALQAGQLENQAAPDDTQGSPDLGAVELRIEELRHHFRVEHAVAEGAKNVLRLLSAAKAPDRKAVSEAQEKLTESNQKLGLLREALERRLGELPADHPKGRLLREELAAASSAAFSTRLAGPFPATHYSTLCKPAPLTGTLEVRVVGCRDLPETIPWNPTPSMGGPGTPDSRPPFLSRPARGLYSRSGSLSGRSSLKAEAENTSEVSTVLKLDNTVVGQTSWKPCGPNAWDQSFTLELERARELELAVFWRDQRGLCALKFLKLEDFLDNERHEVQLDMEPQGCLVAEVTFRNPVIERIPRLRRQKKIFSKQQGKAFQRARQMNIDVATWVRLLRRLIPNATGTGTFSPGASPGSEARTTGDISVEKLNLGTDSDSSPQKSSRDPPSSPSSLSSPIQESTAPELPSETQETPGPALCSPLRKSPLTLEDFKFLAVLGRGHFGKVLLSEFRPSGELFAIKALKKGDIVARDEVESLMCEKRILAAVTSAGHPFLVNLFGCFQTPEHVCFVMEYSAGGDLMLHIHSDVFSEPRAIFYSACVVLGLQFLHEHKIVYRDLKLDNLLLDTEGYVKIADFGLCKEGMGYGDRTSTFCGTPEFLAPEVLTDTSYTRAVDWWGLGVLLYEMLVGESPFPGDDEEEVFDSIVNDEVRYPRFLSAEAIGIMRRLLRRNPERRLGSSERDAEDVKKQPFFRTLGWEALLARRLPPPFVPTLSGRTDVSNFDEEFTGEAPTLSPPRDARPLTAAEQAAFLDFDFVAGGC
Protocol: as §1

kinases in BCWM.1 cells [12] = target: kinases in BCWM.1 cells (Homo sapiens, UniProt O94921)
Protocol: as §1

kinases in BCWM.1 cells [13] = target: kinases in BCWM.1 cells (Homo sapiens, UniProt Q9UHD2); conditions: TBK1; Lys1; 1 μM, 90 min; no GF
Protocol: as §1

kinases in BCWM.1 cells [14] = target: kinases in BCWM.1 cells (Homo sapiens, UniProt Q86SG6); conditions: NEK8; Lys2; 1 μM, 90 min; no GF
Protocol: as §1

kinases in BCWM.1 cells [15] = target: kinases in BCWM.1 cells (Homo sapiens, UniProt Q9Y2I7); conditions: PIP5K3; ATP; 1 μM, 90 min; no GF
kinases in BCWM.1 cells (Homo sapiens, UniProt Q9Y2I7), sequence (Q9Y2I7 2-2098 limits assumed): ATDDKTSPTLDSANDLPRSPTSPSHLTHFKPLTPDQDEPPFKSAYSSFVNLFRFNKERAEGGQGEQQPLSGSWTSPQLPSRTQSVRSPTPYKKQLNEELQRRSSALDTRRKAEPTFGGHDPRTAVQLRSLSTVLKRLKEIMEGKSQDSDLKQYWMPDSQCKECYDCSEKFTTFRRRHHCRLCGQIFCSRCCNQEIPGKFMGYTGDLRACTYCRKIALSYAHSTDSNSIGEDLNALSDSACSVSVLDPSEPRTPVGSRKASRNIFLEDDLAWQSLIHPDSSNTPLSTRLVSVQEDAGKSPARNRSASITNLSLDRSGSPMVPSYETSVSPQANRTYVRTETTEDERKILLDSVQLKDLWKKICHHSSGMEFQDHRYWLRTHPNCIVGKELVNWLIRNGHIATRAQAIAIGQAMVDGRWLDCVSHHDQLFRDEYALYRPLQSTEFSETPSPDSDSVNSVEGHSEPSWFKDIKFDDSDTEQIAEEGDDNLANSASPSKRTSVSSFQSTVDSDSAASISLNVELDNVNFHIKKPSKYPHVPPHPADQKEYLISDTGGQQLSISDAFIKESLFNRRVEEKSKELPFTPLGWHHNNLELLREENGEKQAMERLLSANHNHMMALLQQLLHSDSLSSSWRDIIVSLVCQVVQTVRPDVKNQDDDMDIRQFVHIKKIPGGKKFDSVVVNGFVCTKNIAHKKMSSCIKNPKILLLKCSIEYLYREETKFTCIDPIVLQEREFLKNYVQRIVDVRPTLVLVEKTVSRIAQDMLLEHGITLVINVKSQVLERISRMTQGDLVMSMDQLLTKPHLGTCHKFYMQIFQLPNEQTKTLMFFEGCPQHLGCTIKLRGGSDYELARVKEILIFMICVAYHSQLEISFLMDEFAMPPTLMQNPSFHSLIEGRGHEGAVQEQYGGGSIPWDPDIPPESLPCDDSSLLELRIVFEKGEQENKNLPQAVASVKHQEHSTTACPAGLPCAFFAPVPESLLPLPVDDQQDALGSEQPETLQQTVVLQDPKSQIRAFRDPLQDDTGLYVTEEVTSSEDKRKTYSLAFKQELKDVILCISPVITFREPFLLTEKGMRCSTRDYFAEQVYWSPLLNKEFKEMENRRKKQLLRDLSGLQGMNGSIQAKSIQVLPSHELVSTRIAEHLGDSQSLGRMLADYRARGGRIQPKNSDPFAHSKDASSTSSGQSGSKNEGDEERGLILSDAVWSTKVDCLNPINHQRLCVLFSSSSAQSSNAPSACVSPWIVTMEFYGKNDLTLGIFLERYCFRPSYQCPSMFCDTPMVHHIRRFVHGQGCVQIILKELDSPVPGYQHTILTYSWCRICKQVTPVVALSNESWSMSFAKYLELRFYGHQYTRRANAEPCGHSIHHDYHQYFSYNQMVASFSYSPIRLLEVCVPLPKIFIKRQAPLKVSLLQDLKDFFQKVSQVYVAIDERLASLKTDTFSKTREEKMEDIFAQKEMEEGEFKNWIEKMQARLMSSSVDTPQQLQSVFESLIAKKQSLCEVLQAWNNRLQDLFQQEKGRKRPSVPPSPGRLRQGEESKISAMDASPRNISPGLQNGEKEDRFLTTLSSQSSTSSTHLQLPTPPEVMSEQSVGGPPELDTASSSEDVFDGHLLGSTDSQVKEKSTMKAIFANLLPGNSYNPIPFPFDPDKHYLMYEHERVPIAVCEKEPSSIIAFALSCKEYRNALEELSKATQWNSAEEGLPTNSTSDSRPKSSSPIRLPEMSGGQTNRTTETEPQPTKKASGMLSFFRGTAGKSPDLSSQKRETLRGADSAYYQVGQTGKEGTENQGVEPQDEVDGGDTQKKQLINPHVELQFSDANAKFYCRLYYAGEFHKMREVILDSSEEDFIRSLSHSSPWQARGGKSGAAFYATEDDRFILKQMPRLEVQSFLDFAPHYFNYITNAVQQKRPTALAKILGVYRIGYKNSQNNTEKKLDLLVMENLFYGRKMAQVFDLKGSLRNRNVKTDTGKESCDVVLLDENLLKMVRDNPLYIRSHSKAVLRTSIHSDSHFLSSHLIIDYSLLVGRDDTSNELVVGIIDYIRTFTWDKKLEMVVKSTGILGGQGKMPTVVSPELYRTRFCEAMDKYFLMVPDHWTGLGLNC
Protocol: as §1

kinases in BCWM.1 cells [16] = target: kinases in BCWM.1 cells (Homo sapiens, UniProt P42338); conditions: PIK3CB; ATP; 1 μM, 90 min; no GF
Protocol: as §1

kinases in BCWM.1 cells [17] = target: kinases in BCWM.1 cells (Homo sapiens, UniProt P12931); conditions: SRC; Lys1; 1 μM, 90 min; no GF
kinases in BCWM.1 cells (Homo sapiens, UniProt P12931), sequence (P12931 2-536 limits assumed): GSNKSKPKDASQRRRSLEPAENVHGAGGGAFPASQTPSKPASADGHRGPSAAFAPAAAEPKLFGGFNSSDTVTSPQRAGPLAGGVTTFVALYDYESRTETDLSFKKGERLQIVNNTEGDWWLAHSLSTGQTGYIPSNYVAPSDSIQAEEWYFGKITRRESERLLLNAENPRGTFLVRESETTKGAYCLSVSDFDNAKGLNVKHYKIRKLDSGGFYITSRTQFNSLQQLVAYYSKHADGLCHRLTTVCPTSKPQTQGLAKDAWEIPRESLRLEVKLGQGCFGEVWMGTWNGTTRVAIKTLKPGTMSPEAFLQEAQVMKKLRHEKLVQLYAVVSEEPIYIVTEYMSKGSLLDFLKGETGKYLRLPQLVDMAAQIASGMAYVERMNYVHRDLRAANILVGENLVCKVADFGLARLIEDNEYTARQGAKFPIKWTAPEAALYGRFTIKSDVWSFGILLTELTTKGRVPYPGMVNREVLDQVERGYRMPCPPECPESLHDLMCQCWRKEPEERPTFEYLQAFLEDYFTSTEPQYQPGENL
Protocol: as §1

kinases in BCWM.1 cells [18] = target: kinases in BCWM.1 cells (Homo sapiens, UniProt Q96SB4); conditions: SRPK1; Lys2; 1 μM, 90 min; no GF
Protocol: as §1

kinases in BCWM.1 cells [19] = target: kinases in BCWM.1 cells (Homo sapiens, UniProt Q9UKI8); conditions: TLK1; Lys2; 1 μM, 90 min; no GF
Protocol: as §1

kinases in BCWM.1 cells [20] = target: kinases in BCWM.1 cells (Homo sapiens, UniProt P21127); conditions: PITSLRE; Lys2; 1 μM, 90 min; no GF
Protocol: as §1

kinases in BCWM.1 cells [21] = target: kinases in BCWM.1 cells (Homo sapiens, UniProt P30291); conditions: Wee1; Lys2; 1 μM, 90 min; no GF
Protocol: as §1

kinases in BCWM.1 cells [22] = target: kinases in BCWM.1 cells (Homo sapiens, UniProt P04049); conditions: RAF1; Lys2; 1 μM, 90 min; no GF
Protocol: as §1

kinases in BCWM.1 cells [23] = target: kinases in BCWM.1 cells (Homo sapiens, UniProt P43405); conditions: SYK; Activation Loop; 1 μM, 90 min; no GF
Protocol: as §1

kinases in BCWM.1 cells [24] = target: kinases in BCWM.1 cells (Homo sapiens, UniProt Q96PY6); conditions: NEK1; Lys2; 1 μM, 90 min; no GF
Protocol: as §1

kinases in BCWM.1 cells [25] = target: kinases in BCWM.1 cells (Homo sapiens, UniProt P48736); conditions: PIK3CG; ATP; 1 μM, 90 min; no GF
Protocol: as §1

kinases in BCWM.1 cells [26] = target: kinases in BCWM.1 cells (Homo sapiens, UniProt Q9UL54); conditions: TAO2; Lys2; 1 μM, 90 min; no GF
Protocol: as §1

kinases in BCWM.1 cells [27] = target: kinases in BCWM.1 cells (Homo sapiens, UniProt Q8TDX7); conditions: NEK7; Lys1; 1 μM, 90 min; no GF
Protocol: as §1

kinases in BCWM.1 cells [28] = target: kinases in BCWM.1 cells (Homo sapiens, UniProt Q15349); conditions: RSK3 domain1; Lys2; 1 μM, 90 min; no GF
Protocol: as §1

C=CC(=O)N1CC[C@H](Nc2nccc(Nc3ncc(C(=O)Nc4c(C)cccc4C)s3)n2)C1 [Example I-3]
% change of MS signal compared to control sample (kinases in BCWM.1 cells [1]): 20.5% | % change of MS signal compared to control sample (kinases in BCWM.1 cells [2]): −31.2% | % change of MS signal compared to control sample (kinases in BCWM.1 cells [3]): 2.1% | % change of MS signal compared to control sample (kinases in BCWM.1 cells [4]): 1.6% | % change of MS signal compared to control sample (kinases in BCWM.1 cells [5]): 5.9% | % change of MS signal compared to control sample (kinases in BCWM.1 cells [6]): −14.1% | % change of MS signal compared to control sample (kinases in BCWM.1 cells [7]; RSK1 domain1): 9% | % change of MS signal compared to control sample (kinases in BCWM.1 cells [7]; RSK1 domain2): −1.9% | % change of MS signal compared to control sample (kinases in BCWM.1 cells [8]): −0.4% | % change of MS signal compared to control sample (kinases in BCWM.1 cells [9]): −8.4% | % change of MS signal compared to control sample (kinases in BCWM.1 cells [10]): 8.2% | % change of MS signal compared to control sample (kinases in BCWM.1 cells [11]): −3.3% | % change of MS signal compared to control sample (kinases in BCWM.1 cells [12]): 0.9% | % change of MS signal compared to control sample (kinases in BCWM.1 cells [13]): −25.1% | % change of MS signal compared to control sample (kinases in BCWM.1 cells [14]): 5.1% | % change of MS signal compared to control sample (kinases in BCWM.1 cells [15]): 6.5% | % change of MS signal compared to control sample (kinases in BCWM.1 cells [16]): −9.1% | % change of MS signal compared to control sample (kinases in BCWM.1 cells [17]): 91.7% | % change of MS signal compared to control sample (kinases in BCWM.1 cells [18]): −7.8% | % change of MS signal compared to control sample (kinases in BCWM.1 cells [19]): −0.7% | % change of MS signal compared to control sample (kinases in BCWM.1 cells [20]): −14.1% | % change of MS signal compared to control sample (kinases in BCWM.1 cells [21]): −32.7% | % change of MS signal compared to control sample (kinases in BCWM.1 cells [22]): −18.8% | % change of MS signal compared to control sample (kinases in BCWM.1 cells [23]): −1.2% | % change of MS signal compared to control sample (kinases in BCWM.1 cells [24]): 7.4% | % change of MS signal compared to control sample (kinases in BCWM.1 cells [25]): −9.6% | % change of MS signal compared to control sample (kinases in BCWM.1 cells [26]): 5% | % change of MS signal compared to control sample (kinases in BCWM.1 cells [27]): 5.7% | % change of MS signal compared to control sample (kinases in BCWM.1 cells [28]): 7.6%

CCC(=O)N1CC[C@H](Nc2nccc(Nc3ncc(C(=O)Nc4c(C)cccc4C)s3)n2)C1 [Example I-9]
% change of MS signal compared to control sample (kinases in BCWM.1 cells [1]): −8.2% | % change of MS signal compared to control sample (kinases in BCWM.1 cells [2]): 12.5% | % change of MS signal compared to control sample (kinases in BCWM.1 cells [3]): −2% | % change of MS signal compared to control sample (kinases in BCWM.1 cells [4]): −9.3% | % change of MS signal compared to control sample (kinases in BCWM.1 cells [5]): −24.8% | % change of MS signal compared to control sample (kinases in BCWM.1 cells [6]): 10% | % change of MS signal compared to control sample (kinases in BCWM.1 cells [7]; RSK1 domain1): −2% | % change of MS signal compared to control sample (kinases in BCWM.1 cells [7]; RSK1 domain2): −9.7% | % change of MS signal compared to control sample (kinases in BCWM.1 cells [8]): 1.1% | % change of MS signal compared to control sample (kinases in BCWM.1 cells [9]): −6.4% | % change of MS signal compared to control sample (kinases in BCWM.1 cells [10]): −16.4% | % change of MS signal compared to control sample (kinases in BCWM.1 cells [11]): −4.9% | % change of MS signal compared to control sample (kinases in BCWM.1 cells [12]): −3.9% | % change of MS signal compared to control sample (kinases in BCWM.1 cells [13]): 23% | % change of MS signal compared to control sample (kinases in BCWM.1 cells [14]): −14.1% | % change of MS signal compared to control sample (kinases in BCWM.1 cells [15]): −6.7% | % change of MS signal compared to control sample (kinases in BCWM.1 cells [16]): 33.6% | % change of MS signal compared to control sample (kinases in BCWM.1 cells [17]): 78.6% | % change of MS signal compared to control sample (kinases in BCWM.1 cells [18]): −4% | % change of MS signal compared to control sample (kinases in BCWM.1 cells [19]): −7.9% | % change of MS signal compared to control sample (kinases in BCWM.1 cells [20]): −10.8% | % change of MS signal compared to control sample (kinases in BCWM.1 cells [21]): 14.3% | % change of MS signal compared to control sample (kinases in BCWM.1 cells [22]): 9.9% | % change of MS signal compared to control sample (kinases in BCWM.1 cells [23]): −6.5% | % change of MS signal compared to control sample (kinases in BCWM.1 cells [24]): −3.7% | % change of MS signal compared to control sample (kinases in BCWM.1 cells [25]): −15.1% | % change of MS signal compared to control sample (kinases in BCWM.1 cells [26]): 4.3% | % change of MS signal compared to control sample (kinases in BCWM.1 cells [27]): 11.3% | % change of MS signal compared to control sample (kinases in BCWM.1 cells [28]): −1.4%

— patent publication US10844077B2, “Thiazolyl-containing compounds for treating proliferative diseases” (Dana-Farber Cancer Institute, Inc., priority 2014, dated 2020)
